This passage reports melting point and IC50 results from patent US7312213B2, “Substituted benzo[e][1,4]oxazino[3,2-g]isoindole compounds” (Les Laboratories Servier, priority 2002, dated 2007).

Where a name gives a salt, the structure may show the parent alone.

In data set [1] the test system is KB-3-1 epidermoid carcinoma. The experiment in a line: In vitro cytotoxicity, human solid tumour cell line KB-3-1. In kind it is cell-based. The following applies: 96 h, incubation 4 days. The protocol: (§1) L1210 murine leukaemia was used in vitro. The cells are cultured in RPMI 1640 complete culture medium containing 10% foetal calf serum, 2 mM glutamine, 50 units/ml of penicillin, 50 μg/ml of streptomycin and 10 mM Hepes, pH=7.4. The cells are distributed on microplates and are exposed to the cytotoxic compounds for 4 doubling periods, or 48 hours. The number of viable cells is then quantified by a colorimetric assay, the Microculture Tetrazolium Assay (J. Carmichael et al., Cancer Res.; 47, 939-942 (1987)). The results are expressed as the IC50, the concentration of cytotoxic agent that inhibits the proliferation of the treated cells by 50%.
(§2) The compounds of the invention were also tested on human cell lines originating from solid tumours, in accordance with the same test protocol as that described for L1210 murine leukaemia but with incubation periods of 4 days instead of 2 days.

The next data set concerns DU145 prostate carcinoma. As to the kind of experiment: In vitro cytotoxicity, human solid tumour cell line DU145. In kind it is cell-based. The following applies: DU-145, 96 h, incubation 4 days. As for the experimental part: as §1, §2
A further data set has as its system HT-29 colon carcinoma. The experiment in a line: In vitro cytotoxicity, human solid tumour cell line HT-29. In kind it is cell-based. The following applies: 96 h, incubation 4 days. As for the experimental part:
as §1, §2

The test system of a further data set is L1210 murine leukaemia. As to the kind of experiment: In vitro cytotoxicity, L1210 murine leukaemia (Microculture Tetrazolium Assay). Format: cell-based. The following applies: Mus musculus; L1210, 48 hours exposure (4 doubling periods); read-out: IC50, concentration of cytotoxic agent that inhibits the proliferation of the treated cells by 50%. The protocol:
as §1

Data set [2] relates to A549 non-small-cell lung carcinoma. The experiment in a line: In vitro cytotoxicity, human solid tumour cell line A549. In kind it is cell-based. The following applies: 96 h, incubation 4 days. As for the experimental part:
as §1, §2

Compound `CN(C)CCn1c(=O)c2c3cc(OCCO)ccc3c3[nH]c4ccccc4oc3c2c1=O` [Example 6, 2-[2-(Dimethylamino)ethyl]-5-(2-hydroxyethoxy)benzo-[a]pyrrolo[3,4-c]phenoxazine-1,3-dione] had a melting point of 216 °C. As to `CN(C)CCn1c(=O)c2c3cc(O)ccc3c3[nH]c4ccccc4oc3c2c1=O` [Example 2, 2-[2-(Dimethylamino)ethyl]-5-hydroxybenzo[a]pyrrolo[3,4-c]phenoxazine-1,3-dione hydrochloride], the IC50 in data set [1] was determined as 260 nM; in the data set with DU145 prostate carcinoma it was 270 nM; with HT-29 colon carcinoma, 600 nM; in the data set on L1210 murine leukaemia it was 250 nM; in data set [2], 160 nM. Turning to `CN(C)CCn1c(=O)c2c3cc(OCCO)ccc3c3c(oc4ccccc4n3C(=O)OC(C)(C)C)c2c1=O` [Example 3, 8-(tert-Butoxycarbonyl)-2-[2-(dimethylamino)ethyl]-5-(2-hydroxy-ethoxy)-2,3-dihydrobenzo[a]pyrrolo [3,4-c]phenoxazine-1,3-dione], the melting point was > 80 °C (dec.). For the compound `Cn1c(=O)c2c3cc(OCCO)ccc3c3c(oc4cccnc4n3C(=O)Oc3ccccc3)c2c1=O` [Example 8, 8-(Phenoxycarbonyl)-5-(2-hydroxyethoxy)-2-methyl-2,3-dihydrobenzo[e]pyrido[2′,3′:5,6][1,4]oxazino[3,2-g]isoindole-1,3-dione], the melting point came to 250 °C.

With `CN(C)CCn1c(=O)c2c3cc(O)ccc3c3c(oc4ccccc4n3C(=O)OC(C)(C)C)c2c1=O` [Example 1, 8-(tert-Butoxycarbonyl)-2-[2-(dimethylamino)ethyl]-5-hydroxy-2,3-dihydrobenzo[a]pyrrolo[3,4-c]phenoxazine-1,3-dione], the melting point was 190 °C (dec.). Still for that read-out and setting: the value for `CN(C)CCn1c(=O)c2c3cc(OCCO)ccc3c3c(oc4ccccc4n3C=O)c2c1=O` [Example 7, 8-(Formyl)-2-[2-(dimethylamino)ethyl]-5-(2-hydroxyethoxy)-benzo[a]pyrrolo[3,4-c]phenoxazine-1,3-dione] was 202 °C.
